test system: COX-1 and COX-2; assay: human whole blood assay (Chan, et al., JPET 290:551-560, 1999) for COX-1 and COX-2 inhibition; assay type: cell-based; conditions: approximate COX-2 selectivity ratio = IC50 for inhibition of COX-1 divided by IC50 for inhibition of COX-2, human whole blood assay
Text: The ability of a compound to inhibit COX-1 and/or COX-2 may be characterized by reference to a wide variety of assays. […] Moreover, for purposes of this patent application a COX-2 selectivity ratio is defined by the IC50 for the inhibition of COX-1 divided by the IC50 for the inhibition of COX-2 as measured by the Chan, et al., human whole blood assay.

| Structure (SMILES) | COX-1/COX-2 ratio of the IC50 |
| --- | --- |
| CS(=O)(=O)c1ccc(C2=C(c3ccccc3)C(=O)OC2)cc1 [Rofecoxib, 3-phenyl-4-(4-(methylsulfonyl)phenyl)-2-(5H)-furanone] | 35. |
| Cc1cnc(NC(=O)C2=C(O)c3ccccc3S(=O)(=O)N2C)s1 [Meloxicam] | 2. |
| Cc1ccc(-c2cc(C(F)(F)F)nn2-c2ccc(S(N)(=O)=O)cc2)cc1 [Celecoxib] | 6.5 |
| CCC(=O)NS(=O)(=O)c1ccc(-c2c(-c3ccccc3)noc2C)cc1 [Pericoxib, N-[[4-(5-methyl-3-phenylisoxazol-4-yl)phenyl]sulfonyl]propanamide] | >100 |
| Cc1ccc(-c2ncc(Cl)cc2-c2ccc(S(C)(=O)=O)cc2)cn1 [Compound 13, 5-chloro-3-(4-(methylsulfonyl)phenyl)-2-(2-methyl-5-pyridinyl)pyridine] | 80 |
| COc1ccc2c(c1)c(CC(=O)O)c(C)n2C(=O)c1ccc(Cl)cc1 [Indomethacin] | 0.4 |

Reference: US20020115689A1, “Combination therapy for treating neurodegenerative disease” (priority 1999, published 2002)
